Earlier results in US20240285636A1, “PHARMACEUTICAL COMPOSITION AND USE OF THE PHARMACEUTICAL COMPOSITION” (LIBBS FARMACÊUTICA LTDA, priority 2021, published 2024).

Conditions: class IV = low solubility and low permeability

- Biopharmaceutical Classification System class: class IV
SMILES: CCCSc1nc(N[C@@H]2C[C@H]2c2ccc(F)c(F)c2)c2nnn([C@@H]3C[C@H](OCCO)[C@@H](O)[C@H]3O)c2n1 (relative stereo) [Ticagrelor, {1S-[1α,2α,3β(1S*,2R*),5β}-3-(7-{[2-(3,4-difluorophenyl)-cyclopropyl]amino}-5-(propylthio)-3H-1,2,3-triazol[4,5-d]pyrimidin-3-yl)-5-(2-hydroxyethoxy)cyclopentane-1,2-diol]
